{"source": "patent US20230295163A1", "about": "“TETRACYCLIC DERIVATIVE, METHOD FOR PREPARING SAME AND USE THEREOF IN MEDICINE” (ZHEJIANG HISUN PHARMACEUTICAL CO., LTD., priority 2020, published 2023)", "key": {"NCI-H358 cells": {"tested_on": "NCI-H358 cells", "experiment": "Inhibition of NCI-H358 cell proliferation (CellTiter-Glo)", "type": "cell-based, human", "settings": "Homo sapiens, NCI-H358, 120 h, 120 h of culture; read-out: IC50 inhibiting NCI-H358 cell proliferation", "experimental": "The following method was used to determine the effect of the compounds of the present disclosure on the proliferation of NCI-H358 cells. NCI-H358 cells (containing KRAS G12C mutation) were purchased from the Cell Resource Center, Shanghai Institutes for Biology Sciences, Chinese Academy of Sciences, and cultured in RPMI 1640 medium containing 10% fetal bovine serum, 100 U penicillin, 100 μg/mL streptomycin and 1 mM sodium pyruvate. Cell viability was determined by CellTiter-Glo® Luminescent Cell Viability Assay Kit (Promega, Cat. No. G7573).\nThe experiment was conducted according to the steps in the kit instruction, which is briefly described as follows: The test compound was first prepared with DMSO into a 10 mM stock solution, which was then diluted with medium into a test sample with a final concentration of the compound ranging from 1000 nM to 0.015 nM Cells in the logarithmic growth phase were inoculated into a 96-well cell culture plate at a density of 800 cells per well, cultured overnight at 37° C. in a 5% CO2 incubator, and then added with the test compound for 120 h of culture. After the culture was completed, 50 μL of CellTiter-Glo detection solution was added to each well, shaken for 5 min and left to stand for 10 min. Subsequently, the luminescence value of the sample in each well was read by a microplate in a luminescence mode. The percentage of inhibition rate of the compounds at each concentration was calculated by comparing with the value of the control group (0.3% DMSO). Then a nonlinear regression analysis on the log concentration-inhibition rate of the compounds was performed by the software GraphPad Prism 5 to obtain the IC50 value of the compound inhibiting NCI-H358 cell proliferation. Table 2 IC50 data of compounds of the present disclosure inhibiting NCI-H358 cell proliferation Compound number IC50(nM)"}, "[1]": {"experiment": "ICR mouse pharmacokinetic research", "type": "in vivo", "settings": "plasma, po, ICR mice, intragastric administration 5 mg/kg", "experimental": "ICR mice were used as test animals. The drug concentrations in plasma at different time points of the compounds in Comparative Example 1 and Example 17 of the present disclosure intragastrically administered to the mice were determined by LC/MS/MS method, to study the pharmacokinetic characteristics of the compounds of the present disclosure in mice.\nPreparation for intragastric administration: An appropriate amount of the compound to be tested was weighed, added with an appropriate amount of DMSO: PEG 200=5%: 95% (v/v), shaken by vortex, and prepared into a solution with a final concentration of 0.5 mg/mL.\nIntragastric administration group: After fasting overnight, the mice were intragastrically administered at a dose of 5 mg/kg and a volume of 10 mL/kg, and fed 4 h after the administration.\nIntragastric administration group: About 100 μL of blood was collected through the orbital vein before administration and at 0.25 h, 0.5 h, 1 h, 2 h, 4 h, 8 h, 12 h and 24 h after administration.\nThe whole blood sample was put in an EDTA-K2 anticoagulant tube. The plasma was separated by centrifugation at 1500 g for 10 min. The collected upper layer plasma was stored at −40 to −20° C. before analysis.\nThe content of the compound to be tested in mouse plasma was determined by LC-MS/MS after the compound was intragastrically administered."}, "[2]": {"tested_on": "NCI-H358 cell xenograft tumor", "experiment": "Pharmacodynamics in NCI-H358 cell BALB/c nude mouse subcutaneous xenograft model", "type": "in vivo, BALB/c nude mice", "settings": "10 mg/kg po qd", "experimental": "This test is used to evaluate the anti-tumor effect and safety of the compound 17 of the present disclosure in the animal model of BALB/c nude mouse subcutaneously transplanted with NCI-H358 (human non-small cell lung cancer) cell line after oral intragastric administration for 14 days, once a day.\nAn appropriate amount of compound 17 was weighed into a 10 mL centrifuge tube, added with an appropriate amount of DMA, shaken by vortex for complete dissolution of the solid matter, then added with an appropriate volume of 30% solutol HS 15, shaken by vortex, mixed well, and added with normal saline to make the ratio of DMA:30% solutol HS 15:saline 10:10:80 (v/v/v), for a preparation at a concentration of 1 mg/mL for administration.\nAbout 3.7×10^6 NCI-H358 cells were subcutaneously inoculated on the right side of the back of female BALB/c nude mice. When the average volume of the tumor reached about 100-150 mm^3, the mice were randomly divided into 2 groups according to the size of the tumor, 6 mice in each group.\nAfter tumor inoculation, a subcutaneous xenograft tumor model was established. Each treatment group and the vehicle control group were orally intragastrically administered for 14 days. The animals were weighed daily, and the tumor volume was measured twice a week.\nFormulas for calculating the tumor volume (TV), relative tumor proliferation rate (T/C), relative tumor growth inhibition rate (TGI) and tumor inhibition rate (IR) are as follows: • (1) TV (tumor volume)=½×a×b^2, where a and b represent the length and width of the tumor, respectively; • (2) T/C (relative tumor proliferation rate, %)=TRTV/CRTV×100%, where TRTV is the RTV of the treatment group, and CRTV is the RTV of the control group; • (3) TGI % (tumor growth inhibition rate)=(1−T/C)×100%; where T and C are the relative tumor volumes at a specific time point in the treatment group and the control group, respectively. • (4) IR (%) (tumor weight inhibition rate)=(1−TWt/TWc)×100%, where TWt is the tumor weight in the treatment group, and TW is the tumor weight in the control group."}}}
{"smiles": "C=CC(=O)N1C[C@@H]2C(=O)N(C)c3c(c4cc(Cl)c(-c5c(O)cccc5F)nc4n(-c4c(SC)ccnc4C(C)C)c3=O)N2C[C@H]1C", "note": "(single isomer, unassigned) [Compound 17]", "values": [{"measurement": "IC50", "setting": "NCI-H358 cells", "value": 21.1, "unit": "nM"}, {"measurement": "AUC(0-inf)", "setting": "[1]; read-out: Area under curve AUC0-∞", "value": 6380, "unit": "ng·h/mL"}, {"measurement": "Cmax", "setting": "[1]; read-out: Blood concentration Cmax", "value": 1400, "unit": "ng/mL"}, {"measurement": "half-life", "setting": "[1]; read-out: Half-life T½ (converted)", "value": 2.36, "unit": "h"}, {"measurement": "IR (tumor weight inhibition rate)", "setting": "[2]; 14 days", "value": 90.8, "unit": "%"}, {"measurement": "Tumor weight (x ± S)", "setting": "[2]; 14 days", "value": "0.0157 ± 0.0033", "unit": "g"}, {"measurement": "T/C (%)", "setting": "[2]; Day 15 after administration", "value": 15.6, "unit": "%"}, {"measurement": "TGI (%)", "setting": "[2]; Day 15 after administration", "value": 84.4, "unit": "%"}, {"measurement": "Tumor volume (x ± S)", "setting": "[2]; Day 15 after administration, mean ± standard error", "value": "52 ± 15", "unit": "mm^3"}, {"measurement": "Body weight change", "setting": "[2]; within 14 days", "value": "without significant body weight change"}, {"measurement": "Growth inhibitory effect on the tumor model (in words)", "setting": "[2]; within 14 days", "value": "obvious growth inhibitory effect"}]}
